Source: PubChem BioAssay AID1963841 (Molecular Pharmacology Branch, DTP, NCI, 2024)

System: 439559-082-T-J2-PDC spheroid viability
Experiment: Anticancer human tumor 439559-082-T-J2-PDC patient-derived colon adenocarcinoma cell line growth inhibition [POLQ]
Details: spheroids with HUVEC and MSC; for IC50: curve of first compound; for viability, T/C: stronger effect = lower value
Procedure, shortened: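 Growth inhibition in 3D: complex spheroids (tumor PDC, HUVEC, MSC) treated with POLQ inhibitor combinations; where Cmax unknown, highest tested concentration 10 microM, except SN-38 at 1 microM.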

[1] = second compound 0.0316 µM, first compound 0.0316 µM
[2] = second compound 0.0316 µM, first compound 0.1 µM
[3] = second compound 0.0316 µM, first compound 0.316 µM
[4] = second compound 0.0316 µM, first compound 1 µM
[5] = second compound 0.0316 µM, first compound 3.16 µM
[6] = second compound 0.0316 µM, first compound 10 µM
[7] = second compound 0.1 µM, first compound 0.0316 µM
[8] = second compound 0.1 µM, first compound 0.1 µM
[9] = second compound 0.1 µM, first compound 0.316 µM
[10] = second compound 0.1 µM, first compound 1 µM
[11] = second compound 0.1 µM, first compound 3.16 µM
[12] = second compound 0.1 µM, first compound 10 µM
[13] = second compound 0.316 µM, first compound 0.0316 µM
[14] = second compound 0.316 µM, first compound 0.1 µM
[15] = second compound 0.316 µM, first compound 0.316 µM
[16] = second compound 0.316 µM, first compound 1 µM
[17] = second compound 0.316 µM, first compound 3.16 µM
[18] = second compound 0.316 µM, first compound 10 µM
[19] = second compound 1 µM, first compound 0.0316 µM
[20] = second compound 1 µM, first compound 0.1 µM
[21] = second compound 1 µM, first compound 0.316 µM
[22] = second compound 1 µM, first compound 1 µM
[23] = second compound 1 µM, first compound 3.16 µM
[24] = second compound 1 µM, first compound 10 µM
[25] = second compound 3.16 µM, first compound 0.0316 µM
[26] = second compound 3.16 µM, first compound 0.1 µM
[27] = second compound 3.16 µM, first compound 0.316 µM
[28] = second compound 3.16 µM, first compound 1 µM
[29] = second compound 3.16 µM, first compound 3.16 µM
[30] = second compound 3.16 µM, first compound 10 µM
[31] = second compound 10 µM, first compound 0.0316 µM
[32] = second compound 10 µM, first compound 0.1 µM
[33] = second compound 10 µM, first compound 0.316 µM
[34] = second compound 10 µM, first compound 1 µM
[35] = second compound 10 µM, first compound 3.16 µM
[36] = second compound 10 µM, first compound 10 µM
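Note: spheroids exposed to compounds for seven days before readout.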
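Throughout, for viability, T/C: 100% = DMSO vehicle control viability.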

**Q.** With `O=c1[nH]cc(F)c(=O)[nH]1` + COC1C(OC(N)=O)C(O)C(Oc2ccc3c(O)c(NC(=O)c4ccc(O)c(CC=C(C)C)c4)c(=O)oc3c2C)OC1(C)C as the compound, how does the IC50 (second compound 0.0316 µM) read?
**A.** > 10 µM

**Q.** What about the IC50 (second compound 0.1 µM) of the same compound?
**A.** > 10 µM

**Q.** What about the IC50 (second compound 0.316 µM) of the same compound?
**A.** > 10 µM

**Q.** What about the IC50 (second compound 1 µM) of the same compound?
**A.** > 10 µM

**Q.** What about the IC50 (second compound 3.16 µM) of the same compound?
**A.** > 10 µM

**Q.** And the IC50 (second compound 10 µM)?
**A.** > 10 µM

**Q.** What about the viability, T/C [1] of the same compound?
**A.** 92.1%

**Q.** What about the viability, T/C [2] of the same compound?
**A.** 94.8%

**Q.** What about the viability, T/C [3] of the same compound?
**A.** 80.5%

**Q.** What about the viability, T/C [4] of the same compound?
**A.** 74.8%

**Q.** What about the viability, T/C [5] of the same compound?
**A.** 72.9%

**Q.** What about the viability, T/C [6] of the same compound?
**A.** 70.1%

**Q.** And the viability, T/C [7]?
**A.** 103%

**Q.** What about the viability, T/C [8] of the same compound?
**A.** 99.7%

**Q.** What about the viability, T/C [9] of the same compound?
**A.** 85.9%

**Q.** And the viability, T/C [10]?
**A.** 72.3%

**Q.** What about the viability, T/C [11] of the same compound?
**A.** 69.8%

**Q.** And the viability, T/C [12]?
**A.** 70.1%

**Q.** And the viability, T/C [13]?
**A.** 108%

**Q.** What about the viability, T/C [14] of the same compound?
**A.** 97.5%

**Q.** What about the viability, T/C [15] of the same compound?
**A.** 83.4%

**Q.** What about the viability, T/C [16] of the same compound?
**A.** 74.1%

**Q.** And the viability, T/C [17]?
**A.** 72.8%

**Q.** What about the viability, T/C [18] of the same compound?
**A.** 66.8%

**Q.** What about the viability, T/C [19] of the same compound?
**A.** 103%

**Q.** And the viability, T/C [20]?
**A.** 96.7%

**Q.** What about the viability, T/C [21] of the same compound?
**A.** 79.9%

**Q.** What about the viability, T/C [22] of the same compound?
**A.** 75.5%

**Q.** And the viability, T/C [23]?
**A.** 68.2%

**Q.** What about the viability, T/C [24] of the same compound?
**A.** 66.9%

**Q.** And the viability, T/C [25]?
**A.** 97.8%

**Q.** And the viability, T/C [26]?
**A.** 98.3%

**Q.** What about the viability, T/C [27] of the same compound?
**A.** 83.9%

**Q.** What about the viability, T/C [28] of the same compound?
**A.** 73.2%

**Q.** What about the viability, T/C [29] of the same compound?
**A.** 69.1%

**Q.** What about the viability, T/C [30] of the same compound?
**A.** 61.6%

**Q.** And the viability, T/C [31]?
**A.** 104%

**Q.** And the viability, T/C [32]?
**A.** 88.9%

**Q.** And the viability, T/C [33]?
**A.** 80.9%

**Q.** What about the viability, T/C [34] of the same compound?
**A.** 69.7%

**Q.** And the viability, T/C [35]?
**A.** 70.1%

**Q.** And the viability, T/C [36]?
**A.** 64.3%

**Q.** For `O=C(c1cc(Cc2n[nH]c(=O)c3ccccc23)ccc1F)N1CCN(C(=O)C2CC2)CC1` + Nc1ccc(C#CCN(C(=O)Cc2ncc(C(F)(F)F)cc2C(F)(F)F)c2ccc(F)cc2)nn1, which IC50 (second compound 0.0316 µM) is on record?
**A.** > 10 µM

**Q.** What about the IC50 (second compound 0.1 µM) of the same compound?
**A.** > 10 µM

**Q.** And the IC50 (second compound 0.316 µM)?
**A.** > 10 µM

**Q.** What about the IC50 (second compound 1 µM) of the same compound?
**A.** > 10 µM

**Q.** What about the IC50 (second compound 3.16 µM) of the same compound?
**A.** > 10 µM

**Q.** What about the IC50 (second compound 10 µM) of the same compound?
**A.** > 10 µM

**Q.** And the viability, T/C [1]?
**A.** 93.4%

**Q.** And the viability, T/C [2]?
**A.** 97.3%

**Q.** And the viability, T/C [3]?
**A.** 93.4%

**Q.** And the viability, T/C [4]?
**A.** 101%

**Q.** What about the viability, T/C [5] of the same compound?
**A.** 94.3%

**Q.** What about the viability, T/C [6] of the same compound?
**A.** 98%

**Q.** And the viability, T/C [7]?
**A.** 93.1%

**Q.** And the viability, T/C [8]?
**A.** 106%

**Q.** And the viability, T/C [9]?
**A.** 89.1%

**Q.** And the viability, T/C [10]?
**A.** 117%

**Q.** And the viability, T/C [11]?
**A.** 92.8%

**Q.** And the viability, T/C [12]?
**A.** 99.8%

**Q.** What about the viability, T/C [13] of the same compound?
**A.** 91.5%

**Q.** What about the viability, T/C [14] of the same compound?
**A.** 105%

**Q.** And the viability, T/C [15]?
**A.** 86.8%

**Q.** And the viability, T/C [16]?
**A.** 96.1%

**Q.** And the viability, T/C [17]?
**A.** 106%

**Q.** And the viability, T/C [18]?
**A.** 96.9%

**Q.** What about the viability, T/C [19] of the same compound?
**A.** 104%

**Q.** And the viability, T/C [20]?
**A.** 107%

**Q.** And the viability, T/C [21]?
**A.** 94.1%

**Q.** And the viability, T/C [22]?
**A.** 108%

**Q.** What about the viability, T/C [23] of the same compound?
**A.** 84.7%

**Q.** And the viability, T/C [24]?
**A.** 104%

**Q.** What about the viability, T/C [25] of the same compound?
**A.** 88%

**Q.** What about the viability, T/C [26] of the same compound?
**A.** 116%

**Q.** And the viability, T/C [27]?
**A.** 98.3%

**Q.** What about the viability, T/C [28] of the same compound?
**A.** 106%

**Q.** And the viability, T/C [29]?
**A.** 103%

**Q.** What about the viability, T/C [30] of the same compound?
**A.** 98.3%

**Q.** What about the viability, T/C [31] of the same compound?
**A.** 92.8%

**Q.** What about the viability, T/C [32] of the same compound?
**A.** 87.9%

**Q.** What about the viability, T/C [33] of the same compound?
**A.** 95.5%

**Q.** And the viability, T/C [34]?
**A.** 90.7%

**Q.** And the viability, T/C [35]?
**A.** 98.2%

**Q.** What about the viability, T/C [36] of the same compound?
**A.** 103%

**Q.** What does the source list for `CCc1c2c(nc3ccc(O)cc13)-c1cc3c(c(=O)n1C2)COC(=O)[C@]3(O)CC` + COC1C(OC(N)=O)C(O)C(Oc2ccc3c(O)c(NC(=O)c4ccc(O)c(CC=C(C)C)c4)c(=O)oc3c2C)OC1(C)C?
**A.** IC50 (second compound 0.0316 µM): 0.487 µM; IC50 (second compound 0.1 µM): 0.401 µM; IC50 (second compound 0.316 µM): 0.458 µM; IC50 (second compound 1 µM): 0.377 µM; IC50 (second compound 3.16 µM): 0.332 µM; IC50 (second compound 10 µM): 0.287 µM; viability, T/C (second compound 0.0316 µM, first compound 0.00316 µM): 90.4%; viability, T/C (second compound 0.0316 µM, first compound 0.01 µM): 83.8%; viability, T/C [1]: 69.8%; viability, T/C [2]: 69.3%; viability, T/C [3]: 58.9%; viability, T/C [4]: 39%; viability, T/C (second compound 0.1 µM, first compound 0.00316 µM): 97.3%; viability, T/C (second compound 0.1 µM, first compound 0.01 µM): 84.3%; viability, T/C [7]: 70.7%; viability, T/C [8]: 66.7%; viability, T/C [9]: 57.7%; viability, T/C [10]: 36.6%; viability, T/C (second compound 0.316 µM, first compound 0.00316 µM): 98.5%; viability, T/C (second compound 0.316 µM, first compound 0.01 µM): 92.2%; viability, T/C [13]: 73.1%; viability, T/C [14]: 67.9%; viability, T/C [15]: 58.6%; viability, T/C [16]: 38.5%; viability, T/C (second compound 1 µM, first compound 0.00316 µM): 95.8%; viability, T/C (second compound 1 µM, first compound 0.01 µM): 83.7%; viability, T/C [19]: 65.4%; viability, T/C [20]: 63%; viability, T/C [21]: 59.6%; viability, T/C [22]: 36.8%; viability, T/C (second compound 3.16 µM, first compound 0.00316 µM): 90.5%; viability, T/C (second compound 3.16 µM, first compound 0.01 µM): 81.3%; viability, T/C [25]: 71.8%; viability, T/C [26]: 62%; viability, T/C [27]: 52.7%; viability, T/C [28]: 36.8%; viability, T/C (second compound 10 µM, first compound 0.00316 µM): 80.8%; viability, T/C (second compound 10 µM, first compound 0.01 µM): 82%; viability, T/C [31]: 64.6%; viability, T/C [32]: 61.5%; viability, T/C [33]: 53.1%; viability, T/C [34]: 28.3%
